# Measurements published in US11135252B2, “Probiotic therapies for developmental disorders and other neurological disorders” (Baylor College of Medicine, priority 2016, dated 2021).
# “Also recorded” adds a separate entry of the source.
# Legend:
# Cntnap2-deficient mice = assay: Social behavior (sociability, social novelty) in Cntnap2-deficient mice; type: in vivo
# Protocol: (§1) Crawley's three-chamber test for sociability and preference for social novelty was performed as described (Silverman et al., 2010). In brief, the mouse first experienced a 10-minute period of habituation during which it was allowed to freely explore a 60×40×23 cm Plexiglass arena divided into three equally sized, interconnected chambers (Left, Center, Right). Sociability was measured during a second ten-minute period in which the subject could interact either with an empty wire cup (Empty) or a wire cup containing an age and sex-matched stranger conspecific (Mouse 1). Time spent interacting (sniffing, crawling upon) with either the empty cup or the stranger mouse contained in the other cup as well as time spent in each chamber was recorded using the AnyMaze software, by independent observers. Empty cup placement in the Left or Right chamber during the Sociability period was counterbalanced between trials. Finally, preference for social novelty was assayed by introducing a second stranger mouse (Mouse 2) into the previously the empty wire cup. Time spent in each chamber as well as time spent interacting with either Mouse 1 or Mouse 2 was recorded using the automated AnyMaze software by independent observers.
# To examine whether treatment with L. reuteri could restore ASD-like behaviors in genetic models of ASD, we studied mice lacking contactin associated protein-like 2 (CNTNAP2). Mutations in CNTNAP2 have been associated with syndromic forms of ASD (Nascimento, et al., 2016; Yoo, et al., 2017; Zare, et al., 2017; el-Sobky, et al., 2004; Alarcon, et al., 2008; Sampath, et al., 2013; Chiocchetti, et al., 2015), thereby serving as a genetic model of autism in mice. Second, mice lacking Cntnap2 show ASD-like behaviors (Penagarikano, et al.).
# GF mice = assay: Three-chamber social test in germ-free mice treated with L. reuteri; type: in vivo
# Protocol: C57Bl6/J mice were obtained from Jackson Laboratories (#000-664) and were kept on a 12 h light/dark cycle and had access to food and water ad libitum. Females were placed on either a regular diet (RD) consisting of 13.4% kcal from fat, 30% kcal from protein, and 57% kcal from carbohydrates (Lab Diets, #5001) or high fat diet (HFD) consisting of 60% kcal from fat, 20% kcal from protein, and […] kcal from carbohydrates (Research Diets, #D12492). Maternal weight was measured weekly. Maternal total and fat mass were measured using an mq7.5 Minispec NMR body composition analyzer. After eight weeks on diet, females were paired with C57B16/J adult males to produce subject offspring. Resulting offspring were weaned at three weeks of age and all placed on RD, regardless of maternal diet (MRD or MHFD). Germ-free mice (C57B16/J) were maintained in a flexible isolator fed with HEPA-filtered air and provided with irradiated food and water. Germ-free offspring were weaned at four weeks of age. All behavioral tests were performed on 7-12-week-old male mice.
# as §1, with “observers. […]” for “observers. Empty cup placement in the Left or Right chamber during the Sociability period was counterbalanced between trials. Finally, preference for social novelty was assayed by introducing a second stranger mouse (Mouse 2) into the previously the empty wire cup.”, “observers. […]” for “observers.”
# MHFD offspring = assay: Open field test in MHFD offspring; type: in vivo, mice; conditions: L. reuteri in drinking water
# Protocol: Mice were placed in an open arena (40×40×20 cm) and allowed to explore freely for 10 minutes while their position was continually monitored using tracking software (ANY-Maze). Tracking allowed for measurement of distance traveled, speed, and position in the arena throughout the task. Time spent in the center of the arena, defined as the interior 20×20 cm, was recorded. Lactobacillus reuteri MM4-1A (ATCC-PTA-6475) and Lactobacillus johnsonii (ATCC 33200) were cultured anaerobically in MRS broth in a 90% N2, 5% CO2, 5% H2 environment. L. reuteri was heat-killed by keeping the bacteria at 80° C. for 20 minutes (Wang et al., 2010). Bacterial viability was assessed by plating and the efficacy of the heat-kill procedure was confirmed by the absence of colony growth following plating. Cultures were centrifuged, washed, and resuspended in anaerobic solution (PBS) and frozen at −80° C. until use. PBS, live or heat-killed L. reuteri were added to the drinking water, which was changed daily to minimize dosage variability. Whereas the experimental group received live bacteria, one control group received identically prepared cultures of heat-killed bacteria. A second group of control mice received water treated with PBS alone. Live and heat-killed L. reuteri were supplied at a dosage of 1×10^8 organisms/mouse/day continuously in drinking water. […]
# [1] = mice lacking Cntnap2, L. reuteri in drinking water
substance,measurement,setting,value
Lactobacillus reuteri MM4-1A (ATCC-PTA-6475) [L. reuteri],social behavior abnormalities,"Cntnap2-deficient mice; Cntnap2-deficient mice, L. reuteri treatment",reverses the social behavior abnormalities
same,sociability,Cntnap2-deficient mice; [1],reverses the deficient sociability
same,social novelty,Cntnap2-deficient mice; [1],reverses
same,sociability,GF mice; L. reuteri in drinking water,reverses the deficient sociability
same,social novelty,GF mice; L. reuteri in drinking water,reverses
same,social behavior deficits,GF mice; L. reuteri treatment,sufficient to restore the social behavior deficits
same,time exploring the center of the open field arena (anxiety-related behavior),MHFD offspring,failed to rescue the changes in anxiety; also recorded: did not significantly affect this behavior
